# Like-named read-outs stand apart in the source and are kept apart here.
# Columns and labels:
# [1] = molecular target: CDK6/Cyclin D1 (Homo sapiens, UniProt Q00534); test: NanoBRET live-cell target engagement, NanoLuc-CDK6/Cyclin D1 in HEK-293; assay type: binding
# [2] = molecular target: CDK18/Cyclin Y (Homo sapiens, UniProt Q07002); test: NanoBRET live-cell target engagement, CDK18-NanoLuc/Cyclin Y in HEK-293; assay type: binding
# [3] = CDK6/D1, average (± SEM where n=3), read-out: IC50
# [4] = CDK6/D1, average, read-out: Inhibition at 10µM (%)
# [5] = CDK6/D1, experiment 1, read-out: IC50
# [6] = CDK6/D1, experiment 1, read-out: Inhibition at 10µM (%)
# [7] = CDK6/D1, experiment 2, read-out: IC50
# [8] = CDK6/D1, experiment 2, read-out: Inhibition at 10µM (%)
# [9] = CDK6/D1, experiment 3, read-out: IC50
# [10] = CDK18/Y, average (± SEM where n=3), read-out: IC50
# [11] = CDK18/Y, average, read-out: Inhibition at 10µM (%)
# [12] = CDK18/Y, experiment 1, read-out: IC50
# [13] = CDK18/Y, experiment 1, read-out: Inhibition at 10µM (%)
# [14] = CDK18/Y, experiment 2, read-out: IC50
# [15] = CDK18/Y, experiment 2, read-out: Inhibition at 10µM (%)
# [16] = CDK18/Y, experiment 3, read-out: IC50
# [17] = CDK6/D1, 10µM, average of replicates, read-out: Inhibition at 10µM (%) Average
# [18] = CDK6/D1, 10µM, read-out: Inhibition at 10µM (%) Replicate 1
# [19] = CDK6/D1, 10µM, read-out: Inhibition at 10µM (%) Replicate 2
# Sequence of CDK6/Cyclin D1 (Q00534 whole entry): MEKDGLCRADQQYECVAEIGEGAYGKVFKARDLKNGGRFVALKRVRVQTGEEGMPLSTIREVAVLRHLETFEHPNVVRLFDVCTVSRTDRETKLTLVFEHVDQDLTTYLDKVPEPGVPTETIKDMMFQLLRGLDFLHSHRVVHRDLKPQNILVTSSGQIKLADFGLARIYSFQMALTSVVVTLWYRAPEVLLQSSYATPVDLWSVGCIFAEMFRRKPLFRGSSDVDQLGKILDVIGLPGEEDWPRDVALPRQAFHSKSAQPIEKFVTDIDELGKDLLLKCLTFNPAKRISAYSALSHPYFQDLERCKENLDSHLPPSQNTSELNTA
# Sequence of CDK6/Cyclin D1 (P24385 whole entry partner): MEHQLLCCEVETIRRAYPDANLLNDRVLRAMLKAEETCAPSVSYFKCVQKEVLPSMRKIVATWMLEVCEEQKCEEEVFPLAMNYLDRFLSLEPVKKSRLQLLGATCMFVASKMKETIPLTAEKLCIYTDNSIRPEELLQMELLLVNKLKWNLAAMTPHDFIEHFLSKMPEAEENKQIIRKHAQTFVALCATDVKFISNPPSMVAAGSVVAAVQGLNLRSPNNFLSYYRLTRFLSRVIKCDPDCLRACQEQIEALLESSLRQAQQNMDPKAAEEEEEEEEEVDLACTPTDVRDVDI
# Sequence of CDK18/Cyclin Y (Q07002 whole entry): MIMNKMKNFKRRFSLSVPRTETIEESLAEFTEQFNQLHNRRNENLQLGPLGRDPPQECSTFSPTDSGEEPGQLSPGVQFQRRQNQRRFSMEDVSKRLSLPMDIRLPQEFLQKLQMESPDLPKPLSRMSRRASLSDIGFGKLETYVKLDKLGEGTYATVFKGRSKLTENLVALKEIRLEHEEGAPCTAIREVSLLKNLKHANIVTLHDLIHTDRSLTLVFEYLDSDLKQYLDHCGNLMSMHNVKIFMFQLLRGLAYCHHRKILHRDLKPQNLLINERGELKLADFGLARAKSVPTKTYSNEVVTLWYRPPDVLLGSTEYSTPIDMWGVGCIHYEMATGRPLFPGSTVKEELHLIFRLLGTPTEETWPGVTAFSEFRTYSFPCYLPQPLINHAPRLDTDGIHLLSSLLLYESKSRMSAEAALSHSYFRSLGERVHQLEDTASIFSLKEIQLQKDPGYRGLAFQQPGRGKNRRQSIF
# Sequence of CDK18/Cyclin Y (Q8ND76 whole entry partner): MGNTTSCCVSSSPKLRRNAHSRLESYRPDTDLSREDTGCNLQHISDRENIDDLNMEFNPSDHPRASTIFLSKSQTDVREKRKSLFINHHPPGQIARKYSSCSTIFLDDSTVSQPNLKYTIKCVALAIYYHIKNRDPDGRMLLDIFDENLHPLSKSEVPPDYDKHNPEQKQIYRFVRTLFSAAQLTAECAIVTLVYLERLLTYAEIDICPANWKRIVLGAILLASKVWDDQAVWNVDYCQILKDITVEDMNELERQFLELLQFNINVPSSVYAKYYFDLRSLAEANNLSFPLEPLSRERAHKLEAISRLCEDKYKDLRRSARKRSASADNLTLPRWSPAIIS
SMILES,"IC50 [1, 3] [nM]","inhibition at 10 µM [1, 4] [%]","IC50 [1, 5] [nM]","inhibition at 10 µM [1, 6] [%]","IC50 [1, 7] [nM]","inhibition at 10 µM [1, 8] [%]","IC50 [1, 9] [nM]","IC50 [2, 10] [nM]","inhibition at 10 µM [2, 11] [%]","IC50 [2, 12] [nM]","inhibition at 10 µM [2, 13] [%]","IC50 [2, 14] [nM]","inhibition at 10 µM [2, 15] [%]","IC50 [2, 16] [nM]",also measured
CN1CCN(c2ccc(Nc3ncc4cc(C#N)c(=O)n(C5CCCC5)c4n3)cc2)CC1 [ON123300],4 ± 1,97.7,4.8,96.9,3.4,98.5,3,240 ± 50,38.8,283,27.5,300,50,150,
CNC(=O)c1nn(C)c2c1C(C)(C)Cc1cnc(Nc3ccc(N4CCN(C)CC4)cc3)nc1-2 [Milciclib],110 ± 20,96.3,110,96.1,83,96.5,144,,84.2,,83.1,,85.3,,"IC50 ([1]; live HEK-293, 2 h, mean ± S.E.M. (n=3) or mean (n=2), read-out: IC50 for CDK/cyclin complexes, CDK6/D1): 110 ± 20 nM"
CN(C)C/C=C/C(=O)Nc1ccc(C(=O)Nc2cccc(Nc3ncc(Cl)c(-c4c[nH]c5ccccc45)n3)c2)cc1 [THZ1],,,,,,,,,,,,,,,"CDK6/D1 Inhibition at 10µM (%) ([1]; 10µM, average of experiments): 73.8%; CDK6/D1 Inhibition at 10µM (%) ([1]; 10µM, independent experiment 1): 53.8%; CDK6/D1 Inhibition at 10µM (%) ([1]; 10µM, independent experiment 2): 93.8%; CDK18/Y Inhibition at 10µM (%) ([2]; 10µM, average of experiments): 48.6%; CDK18/Y Inhibition at 10µM (%) ([2]; 10µM, independent experiment 1): 73.0%; CDK18/Y Inhibition at 10µM (%) ([2]; 10µM, independent experiment 2): 24.3%"
CC(C)c1cnn2c(NCc3ccccc3-n3cccn3)nc(OC3CCCNC3)nc12 (centres unmarked) [LDC4297],110 ± 80,,9,,270,,50,230 ± 30,,177,,260,,262,"Inhibition at 10µM (%) ([1]; CDK6/D1, average): 27.5%; Inhibition at 10µM (%) ([1]; CDK6/D1, experiment 1): 31.4%; Inhibition at 10µM (%) ([1]; CDK6/D1, experiment 2): 23.6%; Inhibition at 10µM (%) ([2]; CDK18/Y, average): 97.4%; Inhibition at 10µM (%) ([2]; CDK18/Y, experiment 1): 93.4%; Inhibition at 10µM (%) ([2]; CDK18/Y, experiment 2): 101.4%"
CC(C)N1CCN(c2ccc(Nc3ncc4cc5n(c4n3)C3(CCCCC3)CNC5=O)nc2)CC1 [Lerociclib],,98.9,,97,,101,,,19.5,,22.1,,16.8,,
CC(C)[C@H](CO)Nc1nc(Nc2ccc(C(=O)O)c(Cl)c2)c2ncn(C(C)C)c2n1 [Purvalanol B],,,,,,,,,,,,,,,"inhibition at 10 µM ([1]; 10µM, average of experiments, read-out: CDK6/D1 Inhibition at 10µM (%)): -0.5%; inhibition at 10 µM ([1]; 10µM, independent experiment 1, read-out: CDK6/D1 Inhibition at 10µM (%)): 5.9%; inhibition at 10 µM ([1]; 10µM, independent experiment 2, read-out: CDK6/D1 Inhibition at 10µM (%)): -7%; inhibition at 10 µM ([2]; 10µM, average of experiments, read-out: CDK18/Y Inhibition at 10µM (%)): 5.4%; inhibition at 10 µM ([2]; 10µM, independent experiment 1, read-out: CDK18/Y Inhibition at 10µM (%)): -4.7%; inhibition at 10 µM ([2]; 10µM, independent experiment 2, read-out: CDK18/Y Inhibition at 10µM (%)): 15.4%"
N#CCNC(=O)c1ccc(-c2ccnc(Nc3ccc(N4CCOCC4)cc3)n2)cc1 [Momelotinib],320,50.9,318,50.7,314,51.1,,,18.4,,14.9,,21.8,,
COc1ccc(F)cc1-c1cc(NC(=O)C2CCCNC2)ncc1Cl (centres unmarked) [CDK inhibitor 2],,77.1,,76.2,,78,,140 ± 30,,104,93.5,210,102,112,"inhibition at 10 µM ([2]; read-out: Inhibition at 10µM (%), CDK18/Y, average): 97.8%"
Cc1ncc(-c2ccnc(Nc3ccc(S(C)(=O)=O)cc3)n2)n1C(C)C [AZD5438],,,,,,,,,,,,,,,"inhibition at 10 µM [1, 17]: 91.2%; inhibition at 10 µM [1, 18]: 90.8%; inhibition at 10 µM [1, 19]: 91.7%; inhibition at 10 µM ([2]; CDK18/Y, 10µM, average of replicates, read-out: Inhibition at 10µM (%) Average): 90%; inhibition at 10 µM ([2]; CDK18/Y, 10µM, read-out: Inhibition at 10µM (%) Replicate 1): 84.4%; inhibition at 10 µM ([2]; CDK18/Y, 10µM, read-out: Inhibition at 10µM (%) Replicate 2): 95.5%; IC50 ([2]; CDK18/Y, n=3 average ± SEM, n=2 average to 2 significant figures, read-out: IC50 (nM) Average*): 670 nM; IC50 ([2]; CDK18/Y, read-out: IC50 (nM) Replicate 1): 566 nM; IC50 ([2]; CDK18/Y, read-out: IC50 (nM) Replicate 2): 770 nM"
C[C@H]1CC[C@H](n2c3cnccc3c3cnc(Nc4ccc5c(n4)CCN(C(=O)CO)C5)nc32)CC1 [AMG 925],,,,,,,,,,,,,,,"inhibition at 10 µM [1, 17]: 99.1%; inhibition at 10 µM [1, 18]: 98.6%; inhibition at 10 µM [1, 19]: 99.5%; IC50 ([1]; CDK6/D1, n=3 average ± SEM, n=2 average to 2 significant figures, read-out: IC50 (nM) Average*): 7 ± 3 nM; IC50 ([1]; CDK6/D1, read-out: IC50 (nM) Replicate 1): 2.5 nM; IC50 ([1]; CDK6/D1, read-out: IC50 (nM) Replicate 2): 3.9 nM; IC50 ([1]; CDK6/D1, read-out: IC50 (nM) Replicate 3): 13 nM; inhibition at 10 µM ([2]; read-out: Inhibition at 10µM (%) Average, CDK18/Y, 10µM, average of replicates): 28.7%; inhibition at 10 µM ([2]; read-out: Inhibition at 10µM (%) Replicate 1, CDK18/Y, 10µM): 11.9%; inhibition at 10 µM ([2]; read-out: Inhibition at 10µM (%) Replicate 2, CDK18/Y, 10µM): 45.6%"
